From PubChem BioAssay AID1963845 (Molecular Pharmacology Branch, DTP, NCI, 2024) come the findings set out here.

Each structure is given as a SMILES string.
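Further: luminescence signal used as surrogate measure of viable cells; spheroids exposed to compounds for seven days before readout.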
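Wherever viability, T/C is given: 100% = DMSO vehicle control viability as luminescence relative to vehicle.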

The first assay deals with 429239-143-T-J1-PDC complex spheroid viability. The assay can be described thus: Anticancer human tumor 429239-143-T-J1-PDC patient-derived small cell lung carcinoma cell line growth inhibition [POLQ]. The note with it: curve of first compound; second compound 10 µM. In outline: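 Patient-derived tumour cells were co-cultured with HUVEC and mesenchymal stem cells as multicellular spheroids at 37 °C. They were treated with POLQ inhibitors (novobiocin, ART-558, RP6685) alone or combined with other agents. Top concentrations were at or near clinical Cmax (otherwise 10 microM; SN-38 at 1 microM), decreasing in half-log steps.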
As to `CC1COCCN1c1cc(-c2ccnn2C)c2ccnc(-c3ccn[nH]3)c2n1` (stereo unspecified) + Cc1cccc(N(C)C(=O)C2C(O)CCN2c2nc(C)cc(C(F)(F)F)c2C#N)c1, the IC50 came to 106 nM.

On to `COc1cc2cc(C(=O)CCC(=O)O)sc2cc1OC` + Cc1cccc(N(C)C(=O)C2C(O)CCN2c2nc(C)cc(C(F)(F)F)c2C#N)c1, for which the IC50 was more than 10000 nM.

For `CC1COCCN1c1cc(-c2ccnn2C)c2ccnc(-c3ccn[nH]3)c2n1` (stereo unspecified) + Nc1ccc(C#CCN(C(=O)Cc2ncc(C(F)(F)F)cc2C(F)(F)F)c2ccc(F)cc2)nn1, the IC50 turned out to be 280 nM.

Take `COc1cccc2c1C(=O)c1c(O)c3c(c(O)c1C2=O)CC(O)(C(=O)CO)CC3OC1CC(N)C(O)C(C)O1` (stereo unspecified) + Nc1ccc(C#CCN(C(=O)Cc2ncc(C(F)(F)F)cc2C(F)(F)F)c2ccc(F)cc2)nn1: the IC50 amounted to 67.9 nM.

The assay is the same for the next values; noted with them: second compound 0.0316 µM; first compound 0.0316 µM; stronger effect = lower value.
Turning to `C#Cc1c(F)ccc2cc(O)cc(-c3ncc4c(N5CC6CCC(C5)N6)nc(OCC56CCCN5CC(F)C6)nc4c3F)c12` (stereo unspecified) + Cc1cccc(N(C)C(=O)C2C(O)CCN2c2nc(C)cc(C(F)(F)F)c2C#N)c1, the viability, T/C is 91%.

As for `CC1COCCN1c1cc(-c2ccnn2C)c2ccnc(-c3ccn[nH]3)c2n1` (stereo unspecified) + Cc1cccc(N(C)C(=O)C2C(O)CCN2c2nc(C)cc(C(F)(F)F)c2C#N)c1, the viability, T/C is 88.1%.

Take `COc1cc2cc(C(=O)CCC(=O)O)sc2cc1OC` + Cc1cccc(N(C)C(=O)C2C(O)CCN2c2nc(C)cc(C(F)(F)F)c2C#N)c1: the viability, T/C is 103%.

With `CC1COCCN1c1cc(-c2ccnn2C)c2ccnc(-c3ccn[nH]3)c2n1` (stereo unspecified) + Nc1ccc(C#CCN(C(=O)Cc2ncc(C(F)(F)F)cc2C(F)(F)F)c2ccc(F)cc2)nn1, the viability, T/C is 95%.

Consider `COc1cccc2c1C(=O)c1c(O)c3c(c(O)c1C2=O)CC(O)(C(=O)CO)CC3OC1CC(N)C(O)C(C)O1` (stereo unspecified) + Nc1ccc(C#CCN(C(=O)Cc2ncc(C(F)(F)F)cc2C(F)(F)F)c2ccc(F)cc2)nn1, for which the viability, T/C is 85.2%.

Staying with this assay, now noted: second compound 0.0316 µM; first compound 0.1 µM; stronger effect = lower value.
`C#Cc1c(F)ccc2cc(O)cc(-c3ncc4c(N5CC6CCC(C5)N6)nc(OCC56CCCN5CC(F)C6)nc4c3F)c12` (stereo unspecified) + Cc1cccc(N(C)C(=O)C2C(O)CCN2c2nc(C)cc(C(F)(F)F)c2C#N)c1: the viability, T/C was 92.4%.

As to `CC1COCCN1c1cc(-c2ccnn2C)c2ccnc(-c3ccn[nH]3)c2n1` (stereo unspecified) + Cc1cccc(N(C)C(=O)C2C(O)CCN2c2nc(C)cc(C(F)(F)F)c2C#N)c1, the viability, T/C was 54.9%.

As for `COc1cc2cc(C(=O)CCC(=O)O)sc2cc1OC` + Cc1cccc(N(C)C(=O)C2C(O)CCN2c2nc(C)cc(C(F)(F)F)c2C#N)c1, the viability, T/C was 114%.

Regarding `CC1COCCN1c1cc(-c2ccnn2C)c2ccnc(-c3ccn[nH]3)c2n1` (stereo unspecified) + Nc1ccc(C#CCN(C(=O)Cc2ncc(C(F)(F)F)cc2C(F)(F)F)c2ccc(F)cc2)nn1, the viability, T/C is 77.8%.

Take `COc1cccc2c1C(=O)c1c(O)c3c(c(O)c1C2=O)CC(O)(C(=O)CO)CC3OC1CC(N)C(O)C(C)O1` (stereo unspecified) + Nc1ccc(C#CCN(C(=O)Cc2ncc(C(F)(F)F)cc2C(F)(F)F)c2ccc(F)cc2)nn1: the viability, T/C was 38.8%.

Staying with this assay, now noted: second compound 0.0316 µM; first compound 0.316 µM; stronger effect = lower value.
Consider `C#Cc1c(F)ccc2cc(O)cc(-c3ncc4c(N5CC6CCC(C5)N6)nc(OCC56CCCN5CC(F)C6)nc4c3F)c12` (stereo unspecified) + Cc1cccc(N(C)C(=O)C2C(O)CCN2c2nc(C)cc(C(F)(F)F)c2C#N)c1, for which the viability, T/C was 97.1%.

Turning to `CC1COCCN1c1cc(-c2ccnn2C)c2ccnc(-c3ccn[nH]3)c2n1` (stereo unspecified) + Cc1cccc(N(C)C(=O)C2C(O)CCN2c2nc(C)cc(C(F)(F)F)c2C#N)c1, the viability, T/C is 34.8%.

In the case of `COc1cc2cc(C(=O)CCC(=O)O)sc2cc1OC` + Cc1cccc(N(C)C(=O)C2C(O)CCN2c2nc(C)cc(C(F)(F)F)c2C#N)c1, the viability, T/C was 97.8%.

Consider `CC1COCCN1c1cc(-c2ccnn2C)c2ccnc(-c3ccn[nH]3)c2n1` (stereo unspecified) + Nc1ccc(C#CCN(C(=O)Cc2ncc(C(F)(F)F)cc2C(F)(F)F)c2ccc(F)cc2)nn1, for which the viability, T/C is 68.3%.

For the compound `COc1cccc2c1C(=O)c1c(O)c3c(c(O)c1C2=O)CC(O)(C(=O)CO)CC3OC1CC(N)C(O)C(C)O1` (stereo unspecified) + Nc1ccc(C#CCN(C(=O)Cc2ncc(C(F)(F)F)cc2C(F)(F)F)c2ccc(F)cc2)nn1, the viability, T/C is 5.33%.

The same assay, now with this note: second compound 0.0316 µM; first compound 1 µM; stronger effect = lower value.
For the compound `C#Cc1c(F)ccc2cc(O)cc(-c3ncc4c(N5CC6CCC(C5)N6)nc(OCC56CCCN5CC(F)C6)nc4c3F)c12` (stereo unspecified) + Cc1cccc(N(C)C(=O)C2C(O)CCN2c2nc(C)cc(C(F)(F)F)c2C#N)c1, the viability, T/C was 98.9%.

Turning to `CC1COCCN1c1cc(-c2ccnn2C)c2ccnc(-c3ccn[nH]3)c2n1` (stereo unspecified) + Cc1cccc(N(C)C(=O)C2C(O)CCN2c2nc(C)cc(C(F)(F)F)c2C#N)c1, the viability, T/C is 15.2%.

Consider `COc1cc2cc(C(=O)CCC(=O)O)sc2cc1OC` + Cc1cccc(N(C)C(=O)C2C(O)CCN2c2nc(C)cc(C(F)(F)F)c2C#N)c1, for which the viability, T/C was 106%.

In the case of `CC1COCCN1c1cc(-c2ccnn2C)c2ccnc(-c3ccn[nH]3)c2n1` (stereo unspecified) + Nc1ccc(C#CCN(C(=O)Cc2ncc(C(F)(F)F)cc2C(F)(F)F)c2ccc(F)cc2)nn1, the viability, T/C was 33.4%.

For `COc1cccc2c1C(=O)c1c(O)c3c(c(O)c1C2=O)CC(O)(C(=O)CO)CC3OC1CC(N)C(O)C(C)O1` (stereo unspecified) + Nc1ccc(C#CCN(C(=O)Cc2ncc(C(F)(F)F)cc2C(F)(F)F)c2ccc(F)cc2)nn1, the viability, T/C was 1.05%.

The same assay, now with this note: second compound 0.0316 µM; first compound 3.16 µM; stronger effect = lower value.
In the case of `C#Cc1c(F)ccc2cc(O)cc(-c3ncc4c(N5CC6CCC(C5)N6)nc(OCC56CCCN5CC(F)C6)nc4c3F)c12` (stereo unspecified) + Cc1cccc(N(C)C(=O)C2C(O)CCN2c2nc(C)cc(C(F)(F)F)c2C#N)c1, the viability, T/C was 98.9%.

For the compound `CC1COCCN1c1cc(-c2ccnn2C)c2ccnc(-c3ccn[nH]3)c2n1` (stereo unspecified) + Cc1cccc(N(C)C(=O)C2C(O)CCN2c2nc(C)cc(C(F)(F)F)c2C#N)c1, the viability, T/C is 9.81%.
